Like-named read-outs stand apart in the source and are kept apart here.
Assays:
Format in all cases: in vivo
[1] = tested on: Dermatophagoides farinae Hughes; experiment: Mite repellent effect test (impregnated black paper); conditions: mites counted after 15 minutes, vs acetone control
Method: The repellent effects of compounds shown in Table 1 were evaluated in accordance with the following method. 1. Mite (or mites) under test: Dermatophagoides farinae Hughes. 2. Testing method: Each test compound was diluted with acetone, black paper 2.5 cm square was impregnated with the diluted test compound in such a manner that the test compound is impregnated in a proportion of 100 μg or 1,000 μg per cm^2 and the black paper was air-dried under room temperature for 2 hours. Black paper treated with acetone alone was also provided as a control group. Mites grown at high density were transferred together with a medium to a glass batt (15×20 cm), and a sheet of gauze cut out in the same size was placed thereon. This medium was placed in a plastic closed container controlled at relative humidity of at least 85% with saturated brine and incubated at 25° C. Three sheets of the black paper treated with the test compound were arranged side by side at intervals of at least 5 mm on the gauze to count the number of the mites climbed up the front and back surfaces of the black paper after 15 minutes. This process was repeated 3 times to find an average value, and it was compared with the control group to calculate out a repelling rate in accordance with the following equation. Repelling rate={(A−B)/A}×100(%) wherein A is the number of mites climbed up in the control group, and B is the number of mites climbed up in the treated group.

[2] = tested on: Dermatophagoides farinae Hughes; experiment: Miticidal effect test (impregnated folded filter paper); conditions: 1,000 μg per cm^2 on filter paper, 25° C.
Method: The miticidal effects of compounds shown in Table 2 were evaluated in accordance with the following method. • 1. Mite or Mites under test: Dermatophagoides farinae Hughes. • 2. Testing method:
Each test compound was diluted with acetone, filter paper 5×10 cm in size was impregnated with the diluted test compound in such a manner that the test compound is impregnated in a proportion of 1,000 μg per cm^2, and the filter paper was air-dried at room temperature for 2 hours. Filter paper treated with acetone alone was also provided as a control group. Each filter paper was folded in two, and 20 to 40 mites were freed therein to close the open portion with aclip in such a manner that the mites cannot escape. After the filter paper was incubated for 24 hours or 48 hours in an environment of 25° C. and relative humidity of at least 80%, the numbers of the living or dead mites are calculated through a stereoscopic microscope. This process was repeated 3 times to find an average lethality, and it was compared with the untreated group to calculate out a compensated lethality in accordance with the following equation. Compensated lethality={(Y−X)/(100−X)}×100 (%) wherein X is an average lethality in the control group, and Y is an average lethality in the treated group.

[3] = tested on: Dermatophagoides farinae Hughes; experiment: Mite growth inhibition test in treated medium; conditions: for inhibition at 0.045 % strength: 0.045 % by weight in medium; for inhibition at 0.12 % strength: 0.12 % by weight in medium; for inhibition at 0.23 % strength: 0.23 % by weight in medium; for inhibition at 0.34 % strength: 0.34 % by weight in medium
Method: The inhibitory effect of methyl dihydrojasmonate on the growth of mites was evaluated in accordance with the following method. • 1. Mite (or Mites) under test: Dermatophagoides farinae Hughes. • 2. Testing method:
After a predetermined amount of methyl dihydrojasmonate diluted with ethanol was added to mite-free sterilized medium (10 g; MF powder feed; Oriental Yeast Co., Ltd.), and both were mixed, the mixture was air-dried at room temperature for at least 3 hours to provide a treated group. A medium mixed with ethanol was provided as a control group. Mites sufficiently grown with the same medium as described above in advance were fully mixed with the medium, and this mixture (1 g) was mixed into the test medium containing methyl dihydrojasmonate and control medium, respectively. After fully stirred, the mites were raised at 25° C. for 22 days. A sample (0.1 g) was taken out of each medium to count the number of active mites through a microscope, thereby calculating out a mite growth-inhibiting rate. Incidentally, the test was repeated 3 times to conduct the evaluation in terms of the average value thereof. Mite growth-inhibiting rate={(T−S)/T}×100 (%) wherein T is the number of viable mites in the control group, and S in the number of viable mites in the treated group.

[4] = concentration of compound 100 μg/cm^2 on black paper
[5] = concentration of compound 1,000 μg/cm^2 on black paper
[6] = 8th day, read-out: Growth-inhibiting rate on the 8th day
[7] = 22nd day, read-out: Growth-inhibiting rate on the 22nd day

| Structure (SMILES) | Repelling rate [1, 4] | Repelling rate [1, 5] | further results |
| --- | --- | --- | --- |
| CC(C)=CCCC(C)=CCCC(C)=CCO [Farnesol] | 94% | 96% | Compensated lethality ([2]; incubation time 24 hr): 63%; Compensated lethality ([2]; incubation time 48 hr): 77% |
| C/C(=C\CO)CCC[C@H](C)CCC[C@H](C)CCCC(C)C [Phytol] | 52% | 72% |  |
| C=C(C)C1CC=C(C)C(=O)C1 (stereo not drawn) [Carvone, reference compound] | 10% | 29% |  |
| CC/C=C\CC1=C(C)CCC1=O [cis-Jasmone] | 72% | 85% |  |
| C=CC(C)(O)CCC=C(C)C (stereo not drawn) [Linalool, reference compound] | 47% | 57% |  |
| C=CC(C)(O)CCC=C(C)CCC=C(C)C (stereo not drawn) [Nerolidol] | 80% | 79% |  |
| CC/C=C\CC1C(=O)CCC1CC(=O)OC (stereo not drawn) [Methyl jasmonate] | 93% | 97% |  |
| CCCCCC1C(=O)CCC1CC(=O)OC (stereo not drawn) [Methyl dihydrojasmonate] | 90% | 94% | Compensated lethality ([2]; incubation time 24 hr): 100%; Compensated lethality ([2]; incubation time 48 hr): 100%; inhibition at 0.045 % strength [3, 6]: 75%; inhibition at 0.045 % strength [3, 7]: 54%; inhibition at 0.12 % strength [3, 6]: 86%; inhibition at 0.12 % strength [3, 7]: 61%; inhibition at 0.23 % strength [3, 6]: 93%; inhibition at 0.23 % strength [3, 7]: 69%; inhibition at 0.34 % strength [3, 6]: 92%; inhibition at 0.34 % strength [3, 7]: 80% |
| CCCCCC1=C(C)CCC1=O [Dihydrojasmone] | 80% | 83% |  |

Source: patent publication US6914077B2, “Mite repellant and/or miticide composition” (Kao Corporation, priority 2001, dated 2005)
